Results from patent US20180251431A1 (VERTEX PHARMACEUTICALS INCORPORATED, priority 2016, published 2018).
“Also recorded” adds a separate entry of the source. Where two headings read alike, the source gives them in different places.

Experiments:
ABCD1 knockout (KO) mice = experiment: Reduction of blood C26:0 LPC in vivo in ABCD1 knockout mice (DBS, LC-MS/MS); set-up: species or system mouse
Procedure: Bioanalysis of LPC in Whole Blood and Brain Tissue:
(§1) A LC-MS/MS method of analyzing Lysophosphatidylcholine (LPC) in whole blood (dried blood spot card, DBS) and brain tissue samples was developed for measuring the abundance of saturated C16, C18, C20, C22, C24 and C26 LPC in DBS and brain samples. Whole blood was collected with Whatman DMPK-C DBS card at an approximate volume of 20 μL at each time point. Brain tissue was collected at the end point of the study. Samples were prepared and LC-MS/MS analysis was performed as described below.
Sample Preparation for LPC Bioanalysis:
For DBS bioanalysis, the DBS card was punched at 3 mm in diameter using a semi-automated DBS card puncher. To each punched spot 200 μL of pure methanol was added. The vial was vortexed at low speed for 20 minutes and centrifuged at 4000 rpm for 20 minutes. The clear supernatant was injected onto LC-MS/MS for analysis. For brain tissue bioanalysis, brain tissue was collected in a tared homogenization tube pre-filled with metal bead and weighted. To each sample vial two parts weight of methanol was added. The sample was homogenized using Precellys-24 at 5000 rpm for 20 seconds with one cycle. A 100 mg aliquot of homogenate was used for analysis. To each sample vial 400 μL of pure methanol was added. The vial was vortexed at low speed for 20 minutes and centrifuged at 4000 rpm for 20 minutes. The clear supernatant was injected onto LC-MS/MS for analysis.
The supernatant obtained from each sample was injected into a LC-MS/MS system (Agilent Technologies, Santa Clara, Calif. and Applied Biosystems, Framingham, Mass.) for analysis. All six LPC components (C16:0, C18:0, C20:0, C22:0, C24:0 and C26:0) were chromatographically separated using a Series 1290 binary pump and a Phenomenex (Torrance, Calif.) Kinetex C18 analytical column (2.1×100 mm, 5 μm particle diameter) with a 10-min gradient. A 5% acetonitrile in water solution was used as the aqueous phase and a 40% acetonitrile/60% methanol solution in 1% 2 Mol ammonium acetate was used as the organic mobile phase for achieving the chromatographic analysis. LPCs were detected by an AB Sciex API-6500 triple quadrupole MS with electrospray ionization in the mode of multiple reaction monitoring. Ions of Q1 were monitored at m/z of 496.6, 524.6, 552.6, 580.6, 608.6 and 636.6 for LPC 16:0, LPC 18:0, LPC 20:0, LPC 22:0, LPC 24:0 and LPC 26:0, respectively. A common Q3 ion m/z of 184.2 was used for all LPC analyses. C16:0 LPC levels were expressed as a concentration. All other LPC levels were expressed relative to C16. A one-way ANOVA with Dunnett's multiple comparisons test was performed to assess differences in LPC levels among the different groups. A value of P≤0.05 was considered statistically significant. All statistical analyses were conducted using Prism Software version 7.01 (GraphPad, La Jolla, Calif.).
Dosing in ABCD1 Knockout Mice:
To determine the effect of Compound 87 on blood VLCFA levels, Compound 87 was administered to ABCD1 knockout (KO) mice, a model that reproduces the C26:0 VLCFA accumulation observed in ALD patients. Specifically, Compound 87 was administered orally (PO) QD at 1, 8, or 16 mg/kg to ABCD1 KO mice (n=5 per group). DBS were collected on day 0 (pre-dosing), and daily through 14 days of dosing. DBS cards were stored at 4° C. in sealed ziplock bags with desiccant until they could be analyzed for LPC using the sample preparation and LC-MS/MS as described above. The vehicle used was 2% D-α-Tocopherol polyethylene glycol 1000 succinate (TPGS) and Compound 87 doses were prepared in 2% TPGS. […] Interperitoneal dosing, at 2 or 20 mg/kg (data not shown) or oral (PO) dosing at 1, 8, or 16 mg/kg (FIG. 2A) yielded similar results. A dose response was observed between 1 and 8 mg/kg. […] Error bars indicate standard deviation.
Daily Oral Dosing in ABCD1 Knockout Mice: […]

WT mice = experiment: Reduction of blood C26:0 LPC in vivo in wild-type mice; set-up: species or system mouse; settings: blood (DBS), plateau between the 2 mg/kg and 16 mg/kg doses, PO QD 28 days
Procedure: as §1
For DBS bioanalysis, the DBS card was punched at 3 mm in diameter using a semi-automated DBS card puncher. To each punched spot 200 μL of pure methanol was added. The vial was vortexed at low speed for 20 minutes and centrifuged at 4000 rpm for 20 minutes. The clear supernatant was injected onto LC-MS/MS for analysis. […]
(§2) The supernatant obtained from each sample was injected into a LC-MS/MS system (Agilent Technologies, Santa Clara, Calif. and Applied Biosystems, Framingham, Mass.) for analysis. […] LPCs were detected by an AB Sciex API-6500 triple quadrupole MS with electrospray ionization in the mode of multiple reaction monitoring. Ions of Q1 were monitored at m/z of 496.6, 524.6, 552.6, 580.6, 608.6 and 636.6 for LPC 16:0, LPC 18:0, LPC 20:0, LPC 22:0, LPC 24:0 and LPC 26:0, respectively. […] C16:0 LPC levels were expressed as a concentration. […]

wild-type (WT) rats = experiment: Reduction of blood C26:0 LPC in vivo in wild-type rats; set-up: species or system rat; settings: blood (DBS)
Procedure: as §1
For DBS bioanalysis, the DBS card was punched at 3 mm in diameter using a semi-automated DBS card puncher. To each punched spot 200 μL of pure methanol was added. The vial was vortexed at low speed for 20 minutes and centrifuged at 4000 rpm for 20 minutes. The clear supernatant was injected onto LC-MS/MS for analysis. For brain tissue bioanalysis, brain tissue was collected in a tared homogenization tube pre-filled with metal bead and weighted. To each sample vial two parts weight of methanol was added. The sample was homogenized using Precellys-24 at 5000 rpm for 20 seconds with one cycle. A 100 mg aliquot of homogenate was used for analysis. To each sample vial 400 μL of pure methanol was added. The vial was vortexed at low speed for 20 minutes and centrifuged at 4000 rpm for 20 minutes. […]
as §2
Compound 87 was dosed PO (orally by oral gavage) QD at 30, 100, and 300 mg/kg in wild-type (WT) rats (n=5) for 7 days (FIG. 2C). […] DBS cards were stored at 4° C. until they could be analyzed for LPC. DBS samples were prepared and analyzed using LC-MS/MS as described above.

[1] = Blood exposure (AUC) in the 28-day oral dosing study in mice; assay type: in vivo; settings: ABCD1 knockout (KO), mouse, whole blood (dried blood spots), read-out: Blood area under the concentration time-curve (AUC)

- AUC ([1]; 4 mg/kg PO QD): 1950 ng·h/mL
- AUC ([1]; 8 mg/kg PO QD): 3490 ng·h/mL
SMILES: O=C(Nc1ccn(-c2ccnc(F)c2)n1)C1(c2ccccc2F)CC1 [Compound 87, 1-(2-fluorophenyl)-N-[1-(2-fluoro-4-pyridyl)pyrazol-3-yl]cyclopropanecarboxamide]
- Plasma C26:0 LPC levels (ABCD1 knockout (KO) mice; ABCD1 KO mice, 1, 8, or 16 mg/kg PO QD for 14 days): dropped over the first 8 days before plateauing at near WT baseline levels
- reduction in C24:0 and C26:0 LPC levels compared to vehicle controls (ABCD1 knockout (KO) mice; ABCD1 KO mice, blood (DBS), 0.5 mg/kg PO QD for 28 days): 50%
- reduction in C26:0 LPC levels (dose response plateau) (ABCD1 knockout (KO) mice; ABCD1 KO mice, blood (DBS), plateau between the 4 mg/kg and 8 mg/kg doses, PO QD 28 days): approximately 75%
- time for LPC levels to return to baseline levels after compound discontinuation (ABCD1 knockout (KO) mice; adult female ABCD1 KO mice, 1 or 8 mg/kg PO QD for 14 days, then discontinued): approximately 1 week
- C26:0 LPC reducing effect after discontinuation of treatment (ABCD1 knockout (KO) mice; adult female ABCD1 KO mice, 1 or 8 mg/kg PO QD for 14 days, then discontinued, blood LPC followed another 2 weeks): reversible; also recorded: to about baseline level
- C26:0 LPC/C16:0 LPC levels in the blood (ABCD1 knockout (KO) mice; female ABCD1 KO mice, 1 and 10 mg/kg PO QD, 3 months of dosing): maintained at near WT levels
- reduction in C26:0 LPC levels in vivo (ABCD1 knockout (KO) mice; female ABCD1 KO mice, blood (DBS), 1 mg/kg PO QD for 3 months): ~65%
- reduction in C26:0 LPC levels in vivo (ABCD1 knockout (KO) mice; female ABCD1 KO mice, blood (DBS), 10 mg/kg PO QD for 3 months): ~70%
- reduction in C26:0 LPC levels (maximal effect plateau) (WT mice): ~65%
- reduction in C26:0 LPC levels compared to vehicle controls (wild-type (WT) rats; 30 mg/kg PO QD for 7 days): ~65%
- reduction in C26:0 LPC levels compared to vehicle controls (wild-type (WT) rats; 100 mg/kg PO QD for 7 days): about 75%
- reduction in C26:0 LPC levels compared to vehicle controls (wild-type (WT) rats; 300 mg/kg PO QD for 7 days): about 85%
